Test results as given in US20060003936A1, “Method for modulating the production of a selected protein in vivo” (priority 2002, published 2006).

Experiments:
[1] = test system: HCT-116 cells (116LT, 116HT); test: GCV and TMTX cytotoxicities on transduced HCT-116 cells; type: cell-based, human
Description: FIGS. 7A-D show GCV sensitivty and TMTX resisatnce in parental, tranduced and TMTX exposed colon cancer cells of the HCT-116 and HCT-8 cells lines. Bulk transduction of HCT-116 and HCT-8 was carried out with an moi of 30 for 24 hours or an moi of 2.5 for 2 hours to produce cell lines 116HT and 116LT, and 8HT and 8LT, respectively. Successful gene transfer and transgene expression was confirmed by PCR and Western blotting. […] Infection of 8LT was not detectable with the assay used.
GCV amd TMTX cytotoxicities were measured on the transduced cells. […] (FIGS. 7A and C). This finding correlates with observed levels of fusion protein expression in these cells.

[2] = test system: HCT-8, HCT-116 and C85 colorectal cancer cells transduced with SFG-DHFR/HSV-TK; test: GCV sensitivity of transduced colon cancer cells; type: cell-based, human
Description: (§1) Retrovirus-producing cell lines were generated by transfection of DHFR-HSV1-TK plasmid in parental GP+envAM12 cells. Transfection was performed three times at cell densities of 30%, 50% and 75% using Superfect (Qiagen, Chatsworth, Calif.) as described by the manufacturer. Clones of the retrovirus were selected in 150 nM TMTX. Viral titers were determined against NIH 3T3 cells. Retrovirus-producing AM12V cells were grown in medium without antifolate to a density of 60-80%; the day before infection, the mdeium was changed. Viral transduction was performed by infecting colon cancer cells plated 48 hours before infection in 10 cm dishes. Four single virus exporsures with the desired multiplicity of infection (moi), each of 6 hour duration, were carried out. For each single exposure, fresh AM12V supernatant was filtered through a 0.45 μm cellulose acetate filter and supplemented with polybrene (8 μg/ml). The 2-hour viral transduction was performedin 6 well plates.
(§2) The transduced cells were treated with varying amounts of TMTX (10, 100 and 1000 μM) and levels of fusion protein were detected by Western blotting using either an anti-HSV-TK antibody or an anti-human DHFR antibody.
Three colorectal cancer cells lines (HCT-8, HCT-116 and a cell line, C85, recently established from a patient with liver metastasis) were transduced with the SFG-DHFR/HSV-TK fusion vector of Example 1. […]

[3] = test system: HCT-8 cells (8LT, 8HT, 8LT-CT); test: GCV and TMTX cytotoxicities on transduced HCT-8 cells; type: cell-based, human
Description: Bulk transduction of HCT-116 and HCT-8 was carried out with an moi of 30 for 24 hours or an moi of 2.5 for 2 hours to produce cell lines 116HT and 116LT, and 8HT and 8LT, respectively.
GCV amd TMTX cytotoxicities were measured on the transduced cells.

[4] = test system: DHFR-HSV1 TK fusion protein; test: DHFR-HSV1 TK fusion protein level in tumor tissue of treated rats; type: in vivo, rat; settings: rats with flank tumors; 10 mg/kg once daily for three days or single 100 mg/kg; vs water-treated controls
Description: Rats bearing flank tumors were treated with 10 mg/kg of TMTX for three days (once daily), or with a single high dose of 100 mg/kg. The levels of DHFR-HSV1 TK fusion protein in the tumor tissue of antifolate treated rats, as well as in water-treated controls were analyzed. […] The mean increase was at least 2-fold.

DHFR-EGFP fusion protein = test: Fluorescence microscopy of EGFP expression in transfected GP+envAM12 cells; type: cell-based
Description: Transfections of parental GP+envAM12 cells (Markowitz et al., Virology 167: 400-405 (1988)) with EGFP-containing SFG-plasmids was carried out using DOTAP transfecting reagent (N-{1-(2,3-dioleyloxy)propyl]-N,N,N,-trimethylammonium methyl sulfate, Roche Molecular Biochemicals). Cells transfected with EGFP-expressing vectors were cultrued for at least 12 days and subsequently sorted for EGFP-positive cells using an FACS Vantage SE cell sorter (Becton Dickinson). For fluorescence microscopy, these cells were grown in T25 flasks. Confluent cells were cultured in fresh media with or without TMTX. Fluorescent images of randomly selected areas of the monolayer were taken with a Zeiss Axlovert S100 microscope.

[5] = test system: tumors derived from 8LT-CT cells; test: PET imaging of 124I-FIAU uptake in transduced tumors; type: in vivo, rat; settings: three cycles of 10 mg/kg TMTX, three times daily for three days per cycle, 7 treated and 7 control rats
Description: In a second set of experiments, tumors derived from 8LT-CT and parental HCT-8 cells were evaluated by in vivo imaging. Before the imaging, each animal received three cycles of 10 mg/kg of TMTX, three times daily for three days per cycle. Using PET and the tracer ^124I-FIAU an increase in tumor-signal intensity in TMTX-treated rats was observed.

[6] = molecular target: T1, DHFR-HSV1 TK fusion protein (Homo sapiens, UniProt P00374, F32S/L23F); test: Western blot of DHFR-HSV-TK fusion protein in transduced colon cancer cells treated with antifolate; type: cell-based
T1 construct: HSV1 thymidine kinase (fusion partner); expressed in transfected cells; host or cells: HCT-8, HCT-116 and C85 human colorectal cancer cells, retrovirally transduced with SFG-DHFR/HSV-TK
Description: as §1, §2
Three colorectal cancer cells lines (HCT-8, HCT-116 and a cell line, C85, recently established from a patient with liver metastasis) were transduced with the SFG-DHFR/HSV-TK fusion vector of Example 1. Transduction was verified by PCR using transgene specific primers and elevation of DHFR-HSVTK mRNA and protein expression.

T1 sequence (P00374 other isoform, or with tags, fused parts or gaps L23F/F32S): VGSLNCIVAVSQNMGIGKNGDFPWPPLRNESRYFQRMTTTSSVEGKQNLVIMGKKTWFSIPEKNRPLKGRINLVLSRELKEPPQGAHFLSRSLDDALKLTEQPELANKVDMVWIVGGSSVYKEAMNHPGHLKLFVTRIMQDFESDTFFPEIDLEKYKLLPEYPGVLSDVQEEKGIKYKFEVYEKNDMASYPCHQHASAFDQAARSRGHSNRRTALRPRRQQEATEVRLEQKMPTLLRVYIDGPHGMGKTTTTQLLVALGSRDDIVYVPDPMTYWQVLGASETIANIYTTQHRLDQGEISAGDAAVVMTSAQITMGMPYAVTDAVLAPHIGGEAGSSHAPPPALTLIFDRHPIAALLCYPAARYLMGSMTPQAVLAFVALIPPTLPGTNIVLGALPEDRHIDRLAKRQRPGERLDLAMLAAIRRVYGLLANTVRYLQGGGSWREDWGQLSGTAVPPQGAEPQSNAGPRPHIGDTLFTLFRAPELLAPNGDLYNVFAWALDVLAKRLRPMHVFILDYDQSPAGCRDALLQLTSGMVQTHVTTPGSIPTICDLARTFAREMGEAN

Nc1nc(O)c2ncn(COC(CO)CO)c2n1 [GCV, gancyclovir]
GCV cytotoxicity compared with parental cell line ([1]; 116HT cells): higher | GCV cytotoxicity compared with parental cell line ([1]; 116LT cells): moderate | increase in sensitivity to GCV ([2]; transduced cells after cycles of nine day exposures to increasing TMTX, vs non-transduced cells): 250 fold | sensitivity to GCV ([2]; transduced cells compared to unselected or untransduced cells): increased sensitivity | GCV cytotoxicity ([3]; 8HT cells): GCV sensitivity | increase in GCV sensitivity ([3]; HCT-8 cells treated chronically with increasing concentrations of TMTX (8LT-CT)): 250 fold

COc1cc(NCc2ccc3nc(N)nc(N)c3c2C)cc(OC)c1OC [TMTX, trimetrexate]
TMTX resistance compared with parental cell line ([1]; 116HT cells): higher | TMTX resistance compared with parental cell line ([1]; 116LT cells): moderate | mean increase of DHFR-HSV1 TK fusion protein in tumor tissue [4]: at least 2 fold | expression of DHFR-EGFP fusion protein (DHFR-EGFP fusion protein; DHFR-EGFP fusion vector, 1 μM, durable at 24 and 48 hours): increased | expression of EGFP (DHFR-EGFP fusion protein; plasmids expressing DHFR and EGFP separated by IRES, or just EGFP): not increased | TMTX cytotoxicity ([3]; 8HT cells): TMTX resistance | 124I-FIAU accumulation in transduced tumor tissue vs untreated controls [5]: 2.6 fold | induction of expression of the DHFR-HSV1 TK fusion protein ([6]; concentration range 10^−2 to 1 μM): dose-dependent | fusion protein levels ([6]; high concentrations (1000 μM), without an increase in mRNA): transient increase in fusion protein levels | fusion protein expression (Western blot) ([6]; transduced colon cancer cells, TMTX 10, 100 and 1000 μM, anti-HSV-TK or anti-human DHFR antibody): upregulation of fusion protein expression was observed

COc1cc([C@@H]2c3cc4c(cc3[C@@H](O[C@@H]3O[C@@H]5CO[C@@H](C)O[C@H]5[C@H](O)[C@H]3O)[C@H]3COC(=O)[C@H]23)OCO4)cc(OC)c1O [etoposide]
induction of the fusion protein ([6]; treatment of cells, concentration not given): did not cause induction
